Reference: patent US20150157575A1, “Pharmaceutical Formulations Comprising Vilazodone” (Forest Laboratories Holdings Ltd., priority 2013, published 2015)

Legend:
[1] = Study 1: single-dose pharmacokinetics in mild or moderate hepatic impairment and matched healthy controls; format: in vivo, human; conditions: for AUC(0-inf) / AUC(0-t) / Cmax / half-life / Tmax: both sexes, human, plasma, po, 20 mg, vilazodone 20 mg single oral dose
Description: (§1) The pharmacokinetics, tolerability, and safety of vilazodone were investigated in two separate trials involving participants with hepatic impairment, compared with healthy controls. An Open-label, parallel-group, single-dose pharmacokinetic studies, a single, oral dose of vilazodone (20 mg with increased hardness) was administered to participants with mild, moderate, or severe hepatic impairment or individually matched controls. Outcomes included pharmacokinetic parameters and safety (vital signs, clinical laboratory evaluations, ECG, and adverse events [AEs]). Plasma samples were analyzed using validated LC/MS/MS methods.
(§2) Data from two, open-label, parallel-group, single-dose pharmacokinetic studies investigated single-dose vilazodone (20 mg with increased hardness) in participants with hepatic impairment and normal hepatic function. The first study (Study 1) included participants with mild or moderate hepatic impairment and healthy controls. The second study (Study 2) included participants with severe hepatic impairment or healthy participants. These studies were both designed in accordance with the FDA guidance for evaluation of pharmacokinetics in the presence of hepatic impairment. The differences between the study protocols were minimal, so both methodologies are described together, with any differences noted below.
(§3) Participants were men and women, 18 to 70 years of age, with a body mass index (BMI) of 18-42 kg/m^2. Women were not pregnant or breastfeeding and agreed to utilize a medically accepted form of contraception during the study (as did men in Study 2). In Study 2, participants were also required to be non-smokers or light smokers (fewer than 10 cigarettes per day; there was no stipulation in Study 1) and to have a sitting pulse rate of 50-100 bpm at screening and prior to dosing on Day 1. […] Each healthy control was matched with a hepatically impaired participant. Control participants in the Study 1 were matched with a hepatically impaired individual according to age (±10 years), sex, and BMI (±15%). Control participants in Study 2 were matched with a hepatically impaired individual according to age (±5 years), sex, and weight (±10%).
(§4) Participants with hepatic dysfunction were classified according to the Child-Pugh hepatic dysfunction staging system as having mild (5-6 points) or moderate (7-9 points) hepatic impairment (Study 1), or severe impairment (10-15 points; Study 2). Participants with severe impairment also had chronic liver disease and/or compensated cirrhosis, as evidenced by liver biopsy, computerized tomography or ultrasonic evidence of hepatic fibrosis, clinical evidence of chronic liver disease, or a colloid shift on a liver-spleen scan. Exclusion criteria included the following: a clinical diagnosis or history of depression; treatment with antidepressants, anxiolytics, psychoactive medications (including herbal supplements), other serotonergic drugs, or drugs that inhibit CYP3A4 (eg, ketoconazole, diltiazem, macrolide antibiotics); a hypersensitivity to vilazodone or other SSRIs or 5-HT agonists; history or evidence of alcohol or substance abuse, cancer, human immunodeficiency virus, hepatitis B (Study 1 and healthy controls, both studies) hepatitis C (healthy controls, both studies), or other clinically significant illnesses or medical conditions. Participants with severe hepatic impairment were excluded if they had bleeding diathesis, advanced ascites requiring large-volume paracentesis within 1 week of dosing, esophageal bleeding within the previous 8 weeks, history of portosystemic shunt or hepatic transplant, or evidence of hepatic encephalopathy, hepatorenal syndrome, or other evidence of rapid hepatic deterioration.
(§5) Participants were not allowed to have previously taken vilazodone or participated in any clinical investigation requiring repeated blood draws within 60 days of dosing, or donated blood or plasma within 60 or 30 days, respectively.

[2] = Study 2: single-dose pharmacokinetics in severe hepatic impairment and matched healthy controls; conditions: for AUC(0-t) / AUC(0-inf) / Cmax / Tmax / half-life: both, human, po, 20 mg; for AUC(0-inf): AUC0-∞; for AUC(0-inf) / Cmax / Tmax / half-life: vilazodone 20 mg single oral dose
Description: as §1, §2, §3, §4, §5

serotonin reuptake site = serotonin reuptake site (Homo sapiens, UniProt P31645); conditions: cited from earlier work
[3] = Mild impairment/control, 20 mg single dose
[4] = Moderate impairment/control, 20 mg single dose
[5] = Control matched to Mild Impairment n = 8
[6] = Control matched to Moderate Impairment n = 8
[7] = Severe impairment/control, 20 mg single dose, participants who vomited excluded
[8] = plasma, Control matched to Severe Impairment n = 8
[9] = plasma, Severe Impairment n = 4 (who did not vomit)

Chain of serotonin reuptake site (P31645 whole entry): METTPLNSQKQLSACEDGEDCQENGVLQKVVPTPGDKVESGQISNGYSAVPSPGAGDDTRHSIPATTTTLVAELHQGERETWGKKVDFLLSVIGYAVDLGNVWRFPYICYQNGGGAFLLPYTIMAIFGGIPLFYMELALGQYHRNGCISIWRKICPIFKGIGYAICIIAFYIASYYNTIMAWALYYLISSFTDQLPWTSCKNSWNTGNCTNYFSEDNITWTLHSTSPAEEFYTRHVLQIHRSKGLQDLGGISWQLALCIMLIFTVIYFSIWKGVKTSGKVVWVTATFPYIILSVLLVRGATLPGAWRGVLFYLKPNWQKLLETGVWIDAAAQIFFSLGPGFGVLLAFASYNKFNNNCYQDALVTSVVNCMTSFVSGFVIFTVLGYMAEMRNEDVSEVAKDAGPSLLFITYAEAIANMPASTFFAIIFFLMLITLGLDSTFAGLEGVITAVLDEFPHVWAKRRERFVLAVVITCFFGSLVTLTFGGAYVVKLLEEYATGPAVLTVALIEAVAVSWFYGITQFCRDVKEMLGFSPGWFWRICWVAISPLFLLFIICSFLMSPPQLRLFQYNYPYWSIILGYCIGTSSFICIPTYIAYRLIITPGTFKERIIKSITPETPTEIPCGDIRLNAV

For `Cl.N#Cc1ccc2[nH]cc(CCCCN3CCN(c4ccc5oc(C(N)=O)cc5c4)CC3)c2c1` [Vilazodone, 1-[4-(5-cyanoindol-3-yl)butyl]-4-(2-carbamoyl-benzofuran-5-yl)-piperazine hydrochloride], the “AUC0-t, Ratio of Geometric Means (%)” value [1, 3] was 97.7%, the “AUC0-∞, Ratio of Geometric Means (%)” value [1, 3] was 98.0% and the “Cmax, Ratio of Geometric Means (%)” value [1, 3] was 97.8%. For the same molecule, the “AUC0-t, Ratio of Geometric Means (%)” value [1, 4] was 89.5%, the “AUC0-∞, Ratio of Geometric Means (%)” value [1, 4] was 90.5% and the “Cmax, Ratio of Geometric Means (%)” value [1, 4] was 97.2%. For the same molecule, the AUC(0-inf) [1, 5] was 945 ± 169 ng·h/mL, the AUC(0-t) [1, 5] was 898 ± 168 ng·h/mL and the Cmax [1, 5] was 43.1 ± 13.1 ng/mL. It also gave a half-life [1, 5] of 25.9 ± 5.9 h, a Tmax ([1]; Control matched to Mild Impairment n = 8, read-out: Tmax (mean)) of 5 ± 1.5 h and a Tmax ([1]; Control matched to Mild Impairment n = 8, read-out: Tmax, Median) of 5 h. For the same molecule, the AUC(0-inf) [1, 6] was 809 ± 231 ng·h/mL, the AUC(0-t) [1, 6] was 768 ± 229 ng·h/mL and the Cmax [1, 6] was 35.8 ± 10.7 ng/mL. It also gave a half-life [1, 6] of 25.4 ± 5.5 h, a Tmax ([1]; Control matched to Moderate Impairment n = 8, read-out: Tmax (mean)) of 4.9 ± 0.84 h and a Tmax ([1]; Control matched to Moderate Impairment n = 8, read-out: Tmax, Median) of 5 h. It also gave an AUC(0-inf) ([1]; Mild Impairment n = 8) of 1030 ± 506 ng·h/mL, an AUC(0-t) ([1]; Mild Impairment n = 8) of 984 ± 505 ng·h/mL and a Cmax ([1]; Mild Impairment n = 8) of 44.1 ± 16.5 ng/mL. For the same molecule, the half-life ([1]; Mild Impairment n = 8) was 30.6 ± 8.2 h, the Tmax ([1]; Mild Impairment n = 8, read-out: Tmax (mean)) was 4.6 ± 1.6 h and the Tmax ([1]; Mild Impairment n = 8, read-out: Tmax, Median) was 4.5 h. The AUC(0-inf) ([1]; Moderate Impairment n = 8) was 727 ± 196 ng·h/mL, the AUC(0-t) ([1]; Moderate Impairment n = 8) was 683 ± 190 ng·h/mL and the Cmax ([1]; Moderate Impairment n = 8) was 34.2 ± 8.2 ng/mL. The half-life ([1]; Moderate Impairment n = 8) was 29.4 ± 11.4 h, the Tmax ([1]; Moderate Impairment n = 8, read-out: Tmax (mean)) was 4.1 ± 1.8 h and the Tmax ([1]; Moderate Impairment n = 8, read-out: Tmax, Median) was 4 h. The “mean recovery of unchanged vilazodone in urine over 96 hours” value ([1]; healthy participants and mild and moderate hepatic impairment, 20 mg single dose) was ≤ 1.3 % of the dose, the “AUC0-t, Ratio of Geometric Means (%)” value [2, 7] was 96.9% and the “AUC0-∞, Ratio of Geometric Means (%)” value [2, 7] was 95.8%. The “Cmax, Ratio of Geometric Means (%)” value [2, 7] was 75.2%, the AUC(0-t) ([2]; in vivo) was 642 ± 96.9 ng·h/mL and the AUC(0-t) ([2]; plasma) was 694 ± 262 ng·h/mL. For the same molecule, the AUC(0-inf) [2, 8] was 731 ± 267 ng·h/mL, the AUC(0-inf) [2, 9] was 670 ± 94.8 ng·h/mL and the Cmax [2, 8] was 35 ± 11.8 ng/mL. It also gave a Cmax [2, 9] of 25.3 ± 3.8 ng/mL, a Tmax ([2]; plasma, Tmax (mean), Control matched to Severe Impairment n = 8) of 4.2 ± 1.3 h and a Tmax ([2]; plasma, Tmax (mean), Severe Impairment n = 4 (who did not vomit)) of 4.8 ± 2.2 h. For the same molecule, the Tmax ([2]; plasma, Tmax, Median, Control matched to Severe Impairment n = 8) was 4.5 h, the Tmax ([2]; plasma, Tmax, Median, Severe Impairment n = 4 (who did not vomit)) was 4 h and the half-life ([2]; plasma, t1/2, Control matched to Severe Impairment n = 8) was 30.1 ± 13.8 h. For the same molecule, the half-life ([2]; plasma, t1/2, Severe Impairment n = 4 (who did not vomit)) was 29.8 ± 4.8 h, the “mean Cmax lower than in healthy controls” value ([2]; severe hepatic impairment vs healthy controls, 20 mg single dose) was “approximately 25%” and the “Mean unbound drug clearance (CLu/F) lower vs matched controls” value ([2]; severe impairment group) was 33%. For the same molecule, the “binding affinity to serotonin reuptake site” value (serotonin reuptake site) was “high affinity”.
